Assays:
Type in all cases: in vivo, mouse
DLBCL PDX models = test: 21 DLBCL PDX models, overall tumor response
Protocol: (§1) The research use of patient material in PDX models at Crown Bioscience, XenoSTART and EPO-GmbH was approved by the local Institutional Ethical Review Boards and the patients provided written informed consent. Molecular analysis was performed on samples from each model using the EdgeSeq DLBCL Cell of Origin Assay (HTG Molecular Diagnostics, Tucson, AZ, USA) to confirm ABC-GCB DLBCL subtype.
Stock mice inoculated with human DLBCL cancer tissues were euthanized by progressive hypoxemia with CO2 and tumors were harvested. […]
(§2) When the average tumor volume was within a pre-determined range (100–300 mm^3), mice were assigned to treatment groups to balance the mean starting tumor volumes (n = 5 for all models except LY13005, which was n = 3). […] Tumor volumes were recorded 2–3 times per week. Mean %∆T/∆C was calculated at the end of treatment as described above for MCL models.
Tumor volume was used as the measure of efficacy for statistical analyses of in vivo xenograft studies. Tumor volume data from individual studies were log-transformed and statistically analyzed using repeated measures analysis of covariance (RM-ANCOVA) to determine significant treatment effects, followed by post hoc Tukey’s test for multiple pairwise comparisons (all α = 0.05) using R software. Day 0 data were used only as covariates in the analyses because tumor measurements on that day were recorded before the first treatments were administered. […]

LY11212/GCB = test: DLBCL PDX model; conditions: 13 days, QD PO, TL-895 and ibrutinib 25 mg/kg, acalabrutinib 30 mg/kg
Protocol: (§3) All three compounds were formulated in a solution of 20% kleptose (hydroxypropyl β-cyclodextrin) in 50 mM citrate and administered QD PO during the treatment periods given for each model.
(§4) For mean values > 0: %ΔT/ΔC=endtumorvolumetreatment-starttumorvolumetreatment/endtumorvolumecontrol-starttumorvolumecontrol×100
(§5) For mean values ≤ 0 (i.e. regression): %ΔT/ΔC=endtumorvolumetreatment-starttumorvolumetreatment/starttumorvolumecontrol×100
as §1
(§6) Stock mice inoculated with human DLBCL cancer tissues were euthanized by progressive hypoxemia with CO2 and tumors were harvested. Tumor fragments were used at three different contract research organizations for xenotransplantation into different mouse strains for the following models: (1) 6-week-old female nude (NMRI:nu/nu) or CB17-SCID mice (Javier Labs, France): Ly12638, Ly11212, and Ly13005 (Experimental Pharmacology and Oncology Berlin-Buch GmbH [EPO-GmbH], Germany); (2) 6–8-week-old female BALB/c nude or NOD SCID mice (Beijing HFK Bioscience Co., Ltd. Beijing, China): LY0257, LY2214, LY3604, LY2298, LY2264, LY2318, and LY2345 (Crown Bioscience Inc, Taicang, China); and (3) 6–12-week-old female CB-17 SCID mice (CB17/Icr-Prkdc^scid/IcrIcoCrl Charles River Laboratories, Wilmington, MA, USA): ST118B, ST949B, ST359, ST949, ST2761B, ST2963, ST1361, ST2078, ST1735B, ST2902, and ST3497 (XenoSTART, San Antonio, TX, USA).
as §2
(§7) Tumor volume was used as the measure of efficacy for statistical analyses of in vivo xenograft studies. Tumor volume data from individual studies were log-transformed and statistically analyzed using repeated measures analysis of covariance (RM-ANCOVA) to determine significant treatment effects, followed by post hoc Tukey’s test for multiple pairwise comparisons (all α = 0.05) using R software. Day 0 data were used only as covariates in the analyses because tumor measurements on that day were recorded before the first treatments were administered.

LY2345/ABC = test: DLBCL PDX model; conditions: 17 days, QD PO, TL-895 and ibrutinib 25 mg/kg, acalabrutinib 30 mg/kg
Protocol: as §3, §4, §5, §1, §6, §2, §7

ST949/GCB = test: DLBCL PDX model; conditions: 14 days, QD PO, TL-895 and ibrutinib 25 mg/kg, acalabrutinib 30 mg/kg
Protocol: as §3, §4, §5, §1, §6, §2, §7

LY0257/ABC = test: DLBCL PDX model; conditions: LY0257/ABC MyD88, 17 days, QD PO; TL-895 and ibrutinib 25 mg/kg, acalabrutinib 30 mg/kg
Protocol: as §3, §4, §5, §1, §6, §2, §7

ST2078/GCB = test: DLBCL PDX model; conditions: 20 days, QD PO, TL-895 and ibrutinib 25 mg/kg, acalabrutinib 30 mg/kg
Protocol: as §3, §4, §5, §1, §6, §2, §7

ST2761B/GCB = test: DLBCL PDX model; conditions: 24 days, QD PO, TL-895 and ibrutinib 25 mg/kg, acalabrutinib 30 mg/kg
Protocol: as §3, §4, §5, §1, §6, §2, §7

ST2963/GCB = test: DLBCL PDX model; conditions: 13 days, QD PO, TL-895 and ibrutinib 25 mg/kg, acalabrutinib 30 mg/kg
Protocol: as §3, §4, §5, §1, §6, §2, §7

LY3604/ABC = test: DLBCL PDX model; conditions: 17 days, QD PO, TL-895 and ibrutinib 25 mg/kg, acalabrutinib 30 mg/kg
Protocol: as §3, §4, §5, §1, §6, §2, §7

ST23497/GCB = test: DLBCL PDX model; conditions: 17 days, QD PO, TL-895 and ibrutinib 25 mg/kg, acalabrutinib 30 mg/kg
Protocol: as §3, §4, §5, §1, §6, §2, §7

ST1735B/GCB = test: DLBCL PDX model; conditions: 29 days, QD PO, TL-895 and ibrutinib 25 mg/kg, acalabrutinib 30 mg/kg
Protocol: as §3, §4, §5, §1, §6, §2, §7

LY12638/GCB = test: DLBCL PDX model; conditions: 25 days, QD PO, TL-895 and ibrutinib 25 mg/kg, acalabrutinib 30 mg/kg
Protocol: as §3, §4, §5, §1, §6, §2, §7

LY2318/ABC = test: DLBCL PDX model; conditions: 14 days, QD PO, TL-895 and ibrutinib 25 mg/kg, acalabrutinib 30 mg/kg
Protocol: as §3, §4, §5, §1, §6, §2, §7

LY2214/Unc = test: DLBCL PDX model; conditions: 17 days, QD PO, TL-895 and ibrutinib 25 mg/kg, acalabrutinib 30 mg/kg
Protocol: as §3, §4, §5, §1, §6, §2, §7

ST359/GCB = test: DLBCL PDX model; conditions: 11 days, QD PO, TL-895 and ibrutinib 25 mg/kg, acalabrutinib 30 mg/kg
Protocol: as §3, §4, §5, §1, §6, §2, §7

ST118B/ABC = test: DLBCL PDX model; conditions: ST118B/ABC MyD88, 19 days, QD PO; TL-895 and ibrutinib 25 mg/kg, acalabrutinib 30 mg/kg
Protocol: as §3, §4, §5, §1, §6, §2, §7

LY13005/ABC = test: DLBCL PDX model; conditions: 14 days, QD PO, TL-895 and ibrutinib 25 mg/kg, acalabrutinib 30 mg/kg
Protocol: as §3, §4, §5, §1, §6, §2, §7

ST1361/GCB = test: DLBCL PDX model; conditions: 11 days, QD PO, TL-895 and ibrutinib 25 mg/kg, acalabrutinib 30 mg/kg
Protocol: as §3, §4, §5, §1, §6, §2, §7

LY2264/ABC = test: DLBCL PDX model; conditions: LY2264/ABC MyD88, 25 days, QD PO; TL-895 and ibrutinib 25 mg/kg, acalabrutinib 30 mg/kg
Protocol: as §3, §4, §5, §1, §6, §2, §7

ST2902/GCB = test: DLBCL PDX model; conditions: 22 days, QD PO, TL-895 and ibrutinib 25 mg/kg, acalabrutinib 30 mg/kg
Protocol: as §3, §4, §5, §1, §6, §2, §7

LY2298/ABC = test: DLBCL PDX model; conditions: LY2298/ABC MyD88, 16 days, QD PO; TL-895 and ibrutinib 25 mg/kg, acalabrutinib 30 mg/kg
Protocol: as §3, §4, §5, §1, §6, §2, §7

SMILES: CC#CC(=O)N1CCC[C@H]1c1nc(-c2ccc(C(=O)Nc3ccccn3)cc2)c2c(N)nccn12 [Acalabrutinib]
- Tumor response rate (models with P < 0.05 versus vehicle) (DLBCL PDX models): 24%
- %ΔT/ΔC (LY11212/GCB): 126%
- %ΔT/ΔC (LY2345/ABC): 108%
- %ΔT/ΔC (ST949/GCB): 72%
- %ΔT/ΔC (LY0257/ABC): 54^M %
- %ΔT/ΔC (ST2078/GCB): 115^I %
- %ΔT/ΔC (ST2761B/GCB): 94%
- %ΔT/ΔC (ST2963/GCB): 116%
- %ΔT/ΔC (LY3604/ABC): 36^V %
- %ΔT/ΔC (ST23497/GCB): 100%
- %ΔT/ΔC (ST1735B/GCB): 80%
- %ΔT/ΔC (LY12638/GCB): 262%
- %ΔT/ΔC (LY2318/ABC): 102%
- %ΔT/ΔC (LY2214/Unc): 63%
- %ΔT/ΔC (ST359/GCB): 54%
- %ΔT/ΔC (ST118B/ABC): 104%
- %ΔT/ΔC (LY13005/ABC): 64^V %
- %ΔT/ΔC (ST1361/GCB): 74^V %
- %ΔT/ΔC (LY2264/ABC): 48^V %
- %ΔT/ΔC (ST2902/GCB): 85%
- %ΔT/ΔC (LY2298/ABC): 27^V,I %

SMILES: C=CC(=O)N1CCC(F)(CNc2ncnc(N)c2-c2ccc(Oc3ccccc3)cc2)CC1 [TL-895]
- Tumor response rate (models with P < 0.05 versus vehicle) (DLBCL PDX models): 24%
- %ΔT/ΔC (LY11212/GCB): 115%
- %ΔT/ΔC (LY2345/ABC): 120%
- %ΔT/ΔC (ST949/GCB): 83%
- %ΔT/ΔC (LY0257/ABC): 45^V,I,A %
- %ΔT/ΔC (ST2078/GCB): 114%
- %ΔT/ΔC (ST2761B/GCB): 90%
- %ΔT/ΔC (ST2963/GCB): 106%
- %ΔT/ΔC (LY3604/ABC): 32^V %
- %ΔT/ΔC (ST23497/GCB): 101%
- %ΔT/ΔC (ST1735B/GCB): 101%
- %ΔT/ΔC (LY12638/GCB): 84%
- %ΔT/ΔC (LY2318/ABC): 104%
- %ΔT/ΔC (LY2214/Unc): 93%
- %ΔT/ΔC (ST359/GCB): 71%
- %ΔT/ΔC (ST118B/ABC): 68%
- %ΔT/ΔC (LY13005/ABC): 43^V,I %
- %ΔT/ΔC (ST1361/GCB): 60^V %
- %ΔT/ΔC (LY2264/ABC): 37^V,I %
- %ΔT/ΔC (ST2902/GCB): 104%
- %ΔT/ΔC (LY2298/ABC): 38%

SMILES: C=CC(=O)N1CCC[C@@H](n2nc(-c3ccc(Oc4ccccc4)cc3)c3c(N)ncnc32)C1 [Ibrutinib]
- Tumor response rate (models with P < 0.05 versus vehicle) (DLBCL PDX models): 10%
- %ΔT/ΔC (LY11212/GCB): 171%
- %ΔT/ΔC (LY2345/ABC): 118%
- %ΔT/ΔC (ST949/GCB): 86%
- %ΔT/ΔC (LY0257/ABC): 88^M %
- %ΔT/ΔC (ST2078/GCB): 75^A %
- %ΔT/ΔC (ST2761B/GCB): 71%
- %ΔT/ΔC (ST2963/GCB): 81%
- %ΔT/ΔC (LY3604/ABC): 38^V %
- %ΔT/ΔC (ST23497/GCB): 95%
- %ΔT/ΔC (ST1735B/GCB): 75%
- %ΔT/ΔC (LY12638/GCB): 121%
- %ΔT/ΔC (LY2318/ABC): 86%
- %ΔT/ΔC (LY2214/Unc): 77%
- %ΔT/ΔC (ST359/GCB): 62%
- %ΔT/ΔC (ST118B/ABC): 90%
- %ΔT/ΔC (LY13005/ABC): 71^M %
- %ΔT/ΔC (ST1361/GCB): 65^V %
- %ΔT/ΔC (LY2264/ABC): 74^M %
- %ΔT/ΔC (ST2902/GCB): 92%
- %ΔT/ΔC (LY2298/ABC): 69^A %

Reference: article PMC10663516 (Scientific Reports, 2023)
